Structures can show the parent of a compound that is named as a salt.
How the values were obtained:
Format in all cases: cell-based
[1] = target: T1, TLR2 (Homo sapiens, UniProt O60603); test: TLR2 agonist screening assay, HEK-Blue TLR2 reporter cell line (NF-kB-driven SEAP, absorbance at 600 nm); set-up: host or cells: HEK-293 (HEK-Blue TLR2 reporter cell line); conditions: HEK-Blue TLR2 reporter cells, agonist mode
Outline: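 HEK-293 cells expressing TLR2 with NF-kB-driven SEAP were plated at 40,000 per well. After 16-24 h, they were treated overnight with diluted agonists in detection medium (1% DMSO final). Absorbance at 600 nm was read, and EC50 values were fitted.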

[2] = target: T1, TLR2; test: TLR2 in vitro functional assay, cytokine release from human monocytic cell line THP-1; conditions: THP-1 human monocytic cell line, average of all runs
Procedure: Cells of the immune system respond to TLR agonists in part by secreting cytokines. Functional assays for TLR2 agonists measure cytokine release from purified immune cells or immortalized cell lines derived from immune cells. Cytokine release is measured by standard ELISA approaches or multiplexed analysis using the Meso Scale Discovery (MSD) platform.
Following assay measurements utilizing either HEK-Blue detection or cytokine release, all data is analyzed with the GraphPad Prism8 statistical package to determine EC50, binding and activity metrics for the TLR2 modulators. […]
Numerous cell lines derived from various cell types can respond to TLR2 agonists with stereotyped cytokine and chemokine secretion. In particular, cell lines derived from macrophages respond robustly to TLR2 agonists by secreting a wide array of cytokines, including (but not limited to) TNF-alpha, IL-1, IL-10 and IL-12. The human monocytic cell line THP-1, the mouse macrophage line RAW-264.7, and the rat macrophage line NR8383 were used. For each assay, the respective cell lines were plated into 96-well plates overnight and then treated the following day with various TLR2-engaging compounds at varying concentrations. The next day, supernatants were collected and assayed by multiplex immunodetection for cytokines released (MSD detection kits for respective species).
Data provided in Table 5 is generated using protocols described in Example 45 and 46.

[3] = target: T2, TLR2 (Mus musculus, UniProt Q9QUN7); test: TLR2 functional assay, cytokine release from RAW 264.7 mouse macrophage cell line; conditions: average of all runs
T2 construct: endogenous in cells; host or cells: RAW 264.7
T2 sequence (Q9QUN7 25-784): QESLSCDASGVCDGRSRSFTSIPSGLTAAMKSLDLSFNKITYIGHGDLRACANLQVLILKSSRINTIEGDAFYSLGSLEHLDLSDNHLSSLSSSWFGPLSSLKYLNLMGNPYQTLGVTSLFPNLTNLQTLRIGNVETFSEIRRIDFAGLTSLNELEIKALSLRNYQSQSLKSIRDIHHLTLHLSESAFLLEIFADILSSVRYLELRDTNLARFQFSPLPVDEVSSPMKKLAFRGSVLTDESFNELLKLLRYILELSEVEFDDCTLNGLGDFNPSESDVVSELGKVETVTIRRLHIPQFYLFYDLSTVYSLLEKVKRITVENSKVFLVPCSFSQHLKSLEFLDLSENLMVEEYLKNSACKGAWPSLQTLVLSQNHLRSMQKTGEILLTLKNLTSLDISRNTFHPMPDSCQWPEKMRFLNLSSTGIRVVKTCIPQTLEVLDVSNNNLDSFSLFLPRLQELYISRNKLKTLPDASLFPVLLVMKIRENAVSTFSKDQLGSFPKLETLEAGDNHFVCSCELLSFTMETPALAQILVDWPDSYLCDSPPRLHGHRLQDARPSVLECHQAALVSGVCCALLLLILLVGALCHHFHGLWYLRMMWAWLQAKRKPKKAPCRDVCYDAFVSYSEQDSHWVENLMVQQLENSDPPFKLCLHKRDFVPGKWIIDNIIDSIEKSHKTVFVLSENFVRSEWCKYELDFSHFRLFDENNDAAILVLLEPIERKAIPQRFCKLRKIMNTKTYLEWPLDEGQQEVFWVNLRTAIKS
Outline: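 RAW 264.7 cells plated (about 40,000 per well) and treated with compounds at varying concentrations for 6–24 h (or overnight). Released cytokines in supernatant (e.g. TNF-alpha, IL-1, IL-10, IL-12) measured by ELISA or MSD multiplex; EC50 fitted.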

T1 sequence (O60603 21-784): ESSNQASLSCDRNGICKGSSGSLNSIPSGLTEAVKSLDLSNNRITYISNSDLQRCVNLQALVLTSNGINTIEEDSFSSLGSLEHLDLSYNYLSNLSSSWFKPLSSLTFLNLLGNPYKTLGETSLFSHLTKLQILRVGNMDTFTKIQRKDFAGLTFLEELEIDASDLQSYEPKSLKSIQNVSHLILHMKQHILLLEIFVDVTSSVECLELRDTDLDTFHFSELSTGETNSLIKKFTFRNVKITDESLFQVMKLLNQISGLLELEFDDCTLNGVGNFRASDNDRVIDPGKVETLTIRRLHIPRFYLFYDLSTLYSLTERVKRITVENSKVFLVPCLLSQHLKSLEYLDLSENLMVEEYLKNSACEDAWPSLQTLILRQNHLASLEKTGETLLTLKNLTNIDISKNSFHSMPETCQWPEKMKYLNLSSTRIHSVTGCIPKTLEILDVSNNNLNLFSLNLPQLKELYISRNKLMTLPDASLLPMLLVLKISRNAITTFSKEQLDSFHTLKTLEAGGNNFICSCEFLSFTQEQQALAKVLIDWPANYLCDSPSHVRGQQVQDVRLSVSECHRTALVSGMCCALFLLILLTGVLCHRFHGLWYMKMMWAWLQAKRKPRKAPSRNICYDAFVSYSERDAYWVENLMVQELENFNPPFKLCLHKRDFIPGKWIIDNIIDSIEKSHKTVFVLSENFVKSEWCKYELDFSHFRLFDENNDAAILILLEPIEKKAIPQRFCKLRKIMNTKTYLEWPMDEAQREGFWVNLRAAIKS

## CCCCCCCCCCCCCCNC(=O)[C@@H]1CN(C(=O)c2ccc(C(=O)N3C[C@@H](C(=O)N[C@H]4C[C@@H]4c4ccccc4)[C@H](C(=O)N[C@H]4C[C@@H]4c4ccccc4)C3)cc2)C[C@H]1OC (relative stereo) [Compound 060, (3S,4S)-1-(4-((3S*,4R*)-3-methoxy-4-(tetradecylcarbamoyl)pyrrolidine-1-carbonyl)benzoyl)-N3,N4-bis((1S,2R)-2-phenylcyclopropyl)pyrrolidine-3,4-dicarboxamide]
[1]; average of all runs (Table 3)
  EC50: 0.1 to 50 nM
[2]
  EC50: 0.1 to 50 nM

## CCCCCCCNC(=O)[C@@H]1CN(C(=O)c2ccc(C(=O)N3C[C@@H](C(=O)N[C@H]4C[C@@H]4c4ccccc4)[C@H](C(=O)N[C@H]4C[C@@H]4c4ccccc4)C3)cc2)C[C@@H]1OCCCCCCC (relative stereo) [Compound 063, (3S,4S)-1-(4-((3R*,4R*)-3-(heptylcarbamoyl)-4-(heptyloxy)pyrrolidine-1-carbonyl)benzoyl)-N3,N4-bis((1S,2R)-2-phenylcyclopropyl)pyrrolidine-3,4-dicarboxamide]
[1]; average of all runs (Table 3)
  EC50: 351 to 1000 nM
[2]
  EC50: 0.1 to 50 nM

## CCCCCCCCCCCCCCNC(=O)[C@H]1CN(C(=O)c2ccc(C(=O)N3C[C@@H](C(=O)N[C@H]4C[C@@H]4c4ccccc4)[C@H](C(=O)N[C@H]4C[C@@H]4c4ccccc4)C3)cc2)C[C@H]1O (relative stereo) [Compound 104, (3S,4S)-1-(4-((3S*,4S*)-3-hydroxy-4-(tetradecylcarbamoyl)pyrrolidine-1-carbonyl)benzoyl)-N3,N4-bis((1S,2R)-2-phenylcyclopropyl)pyrrolidine-3,4-dicarboxamide]
[1]; average of all runs (Table 4)
  EC50: 0.1 to 50 nM
[2]
  EC50: 0.1 to 50 nM

## CCCCCCCCCCCCCCNC(=O)[C@H]1CN(C(=O)c2ccc(C(=O)N3C[C@@H](C(=O)N[C@H]4C[C@@H]4c4ccccc4)[C@H](C(=O)N[C@H]4C[C@@H]4c4ccccc4)C3)cc2)C[C@H]1OC (relative stereo) [Compound 108, (3S,4S)-1-(4-((3S*,4S*)-3-methoxy-4-(tetradecylcarbamoyl)pyrrolidine-1-carbonyl)benzoyl)-N3,N4-bis((1S,2R)-2-phenylcyclopropyl)pyrrolidine-3,4-dicarboxamide]
[1]; average of all runs (Table 4)
  EC50: 0.1 to 50 nM
[2]
  EC50: 0.1 to 50 nM
[3]
  EC50: 51 to 350 nM

## CCCCCCCCCCCCCCNC(=O)[C@@H]1CN(C(=O)c2ccc(C(=O)N3C[C@@H](C(=O)N[C@H]4C[C@@H]4c4ccccc4)[C@H](C(=O)N[C@H]4C[C@@H]4c4ccccc4)C3)cc2)C[C@@H]1O (single isomer, unassigned) [Compound 044, (3S,4S)-1-(4-((3R*,4R*)-3-hydroxy-4-(tetradecylcarbamoyl)pyrrolidine-1-carbonyl)benzoyl)-N3,N4-bis((1S,2R)-2-phenylcyclopropyl)pyrrolidine-3,4-dicarboxamide]
[1]; average of all runs (Table 3)
  EC50: 0.1 to 50 nM
[2]
  EC50: 0.1 to 50 nM

## CCCCCCCO[C@@H]1CN(C(=O)c2ccc(C(=O)N3C[C@@H](C(=O)N[C@H]4C[C@@H]4c4ccccc4)[C@H](C(=O)N[C@H]4C[C@@H]4c4ccccc4)C3)cc2)C[C@H]1C(=O)NCCCCCC (single isomer, unassigned) [Compound 072, (3S,4S)-1-(4-((3S*,4R*)-3-(heptyloxy)-4-(hexylcarbamoyl)pyrrolidine-1-carbonyl)benzoyl)-N3,N4-bis((1S,2R)-2-phenylcyclopropyl)pyrrolidine-3,4-dicarboxamide]
[1]; average of all runs (Table 3)
  EC50: 0.1 to 50 nM
[2]
  EC50: 0.1 to 50 nM

## CCCCCCNC(=O)[C@H](CNC(=O)c1ccc(C(=O)N2C[C@@H](C(=O)N[C@H]3C[C@@H]3c3ccccc3)[C@H](C(=O)N[C@H]3C[C@@H]3c3ccccc3)C2)cc1)NC(=O)CCCCCC [Compound 025, (3S,4S)-1-(4-(((S)-2-heptanamido-3-(hexylamino)-3-oxopropyl)carbamoyl)benzoyl)-N3,N4-bis((1S,2R)-2-phenylcyclopropyl)pyrrolidine-3,4-dicarboxamide]
[1]; average of all runs (Table 3)
  EC50: 0.1 to 50 nM
[2]
  EC50: 0.1 to 50 nM

## CCCCCCCCCCCCCCC(=O)N[C@H]1CCN(C(=O)c2ccc(C(=O)N3C[C@@H](C(=O)N[C@H]4C[C@@H]4c4ccccc4)[C@H](C(=O)N[C@H]4C[C@@H]4c4ccccc4)C3)cc2)C1 [Compound 026, (3S,4S)-1-(4-((S)-3-pentadecanamidopyrrolidine-1-carbonyl)benzoyl)-N3,N4-bis((1S,2R)-2-phenylcyclopropyl)pyrrolidine-3,4-dicarboxamide]
[1]; average of all runs (Table 3)
  EC50: 51 to 350 nM
[2]
  EC50: 51 to 350 nM

## CCCCCCCCCCCCCCC(=O)N[C@@H]1CCN(C(=O)c2ccc(C(=O)N3C[C@@H](C(=O)N[C@H]4C[C@@H]4c4ccccc4)[C@H](C(=O)N[C@H]4C[C@@H]4c4ccccc4)C3)cc2)C1 [Compound 027, (3S,4S)-1-(4-((R)-3-pentadecanamidopyrrolidine-1-carbonyl)benzoyl)-N3,N4-bis((1S,2R)-2-phenylcyclopropyl)pyrrolidine-3,4-dicarboxamide]
[1]; average of all runs (Table 3)
  EC50: 0.1 to 50 nM
[2]
  EC50: 0.1 to 50 nM

## CCCCCCCC(=O)N1CCN(C(=O)c2ccc(C(=O)N3C[C@@H](C(=O)N[C@H]4C[C@@H]4c4ccccc4)[C@H](C(=O)N[C@H]4C[C@@H]4c4ccccc4)C3)cc2)C[C@@H]1C(=O)NCCCCCC [Compound 032, (3S,4S)-1-(4-((R)-3-(hexylcarbamoyl)-4-octanoylpiperazine-1-carbonyl)benzoyl)-N3,N4-bis((1S,2R)-2-phenylcyclopropyl)pyrrolidine-3,4-dicarboxamide]
[1]; average of all runs (Table 3)
  EC50: 0.1 to 50 nM
[2]
  EC50: 0.1 to 50 nM

## CCCCCCCC(=O)N1CCN(C(=O)c2ccc(C(=O)N3C[C@@H](C(=O)N[C@H]4C[C@@H]4c4ccccc4)[C@H](C(=O)N[C@H]4C[C@@H]4c4ccccc4)C3)cc2)CC1C(=O)NCCc1ccc(F)cc1 (stereo partly drawn) [Compound 036, (3S,4S)-1-(4-(3-((4-fluorophenethyl)carbamoyl)-4-octanoylpiperazine-1-carbonyl)benzoyl)-N3,N4-bis((1S,2R)-2-phenylcyclopropyl)pyrrolidine-3,4-dicarboxamide]
[1]; average of all runs (Table 3)
  EC50: 0.1 to 50 nM
[2]
  EC50: 0.1 to 50 nM

## CCCCCCCCCCCCCCNC(=O)[C@H]1CN(C(=O)c2ccc(C(=O)N3C[C@@H](C(=O)N[C@H]4C[C@@H]4c4ccccc4)[C@H](C(=O)N[C@H]4C[C@@H]4c4ccccc4)C3)cc2)CCN1C [Compound 059, (3S,4S)-1-(4-((R)-4-methyl-3-(tetradecylcarbamoyl)piperazine-1-carbonyl)benzoyl)-N3,N4-bis((1S,2R)-2-phenylcyclopropyl)pyrrolidine-3,4-dicarboxamide formate]
[1]; average of all runs (Table 3)
  EC50: 0.1 to 50 nM
[2]
  EC50: 0.1 to 50 nM

## CCCCCCCCN1C(=O)CN(C(=O)c2ccc(C(=O)N3C[C@@H](C(=O)N[C@H]4C[C@@H]4c4ccccc4)[C@H](C(=O)N[C@H]4C[C@@H]4c4ccccc4)C3)cc2)C[C@@H]1C(=O)NCCCCCC [Compound 075, (3S,4S)-1-(4-((R)-3-(hexylcarbamoyl)-4-octyl-5-oxopiperazine-1-carbonyl)benzoyl)-N3,N4-bis((1S,2R)-2-phenylcyclopropyl)pyrrolidine-3,4-dicarboxamide]
[1]; average of all runs (Table 3)
  EC50: 51 to 350 nM
[2]
  EC50: 0.1 to 50 nM

## CCCCCCCC(=O)N1CC(=O)N(Cc2ccc(C(=O)N3C[C@@H](C(=O)N[C@H]4C[C@@H]4c4ccccc4)[C@H](C(=O)N[C@H]4C[C@@H]4c4ccccc4)C3)cc2)C[C@H]1C(=O)NCCCCCC [Compound 076, (3S,4S)-1-(4-(((S)-5-(hexylcarbamoyl)-4-octanoyl-2-oxopiperazin-1-yl)methyl)benzoyl)-N3,N4-bis((1S,2R)-2-phenylcyclopropyl)pyrrolidine-3,4-dicarboxamide]
[1]; average of all runs (Table 3)
  EC50: 0.1 to 50 nM
[2]
  EC50: 0.1 to 50 nM

## CCCCCCCCCCCCCCNC(=O)[C@@H]1CCCN(C(=O)c2ccc(C(=O)N3C[C@@H](C(=O)N[C@H]4C[C@@H]4c4ccccc4)[C@H](C(=O)N[C@H]4C[C@@H]4c4ccccc4)C3)cc2)C1 [Compound 102, (3S,4S)—N3,N4-bis((1S,2R)-2-phenylcyclopropyl)-1-(4-((R)-3-(tetradecylcarbamoyl)piperidine-1-carbonyl)benzoyl) pyrrolidine-3,4-dicarboxamide]
[1]; average of all runs (Table 4)
  EC50: 0.1 to 50 nM
[2]
  EC50: 0.1 to 50 nM

## CCCCCCCCCCCCCCNC(=O)[C@H]1CN(C(=O)c2ccc(C(=O)N3C[C@@H](C(=O)N[C@H]4C[C@@H]4c4ccccc4)[C@H](C(=O)N[C@H]4C[C@@H]4c4ccccc4)C3)cc2)C[C@@H]1OC [Compound 110, (3S,4S)-1-(4-((3R,4S)-3-methoxy-4-(tetradecylcarbamoyl)pyrrolidine-1-carbonyl)benzoyl)-N3,N4-bis((1S,2R)-2-phenylcyclopropyl)pyrrolidine-3,4-dicarboxamide]
[1]; average of all runs (Table 4)
  EC50: 0.1 to 50 nM
[2]
  EC50: 0.1 to 50 nM

Reference: patent publication US11951094B2, “TLR2 modulator compounds, pharmaceutical compositions and uses thereof” (Axial Therapeutics, Inc., priority 2020, dated 2024)
